Here are results for 19 compounds from US11292767B2, “Heterocyclic inhibitors of MCT4” (Vettore, LLC, priority 2016, dated 2022).

Data set [1] deals with MCT1 (Homo sapiens (Human), UniProt P53985). The data set can be described thus: Assay 4: MCT1-mediated lactate transport in BT20 breast cancer cells. The following applies: lactate transport (Table 27). Format: cell-based. As to the method:
Preparing BCECF-Loaded Cells
10 µL of a 30 mM DMSO stock of BCECF-AM ester (Life Technologies) is added and the cells are incubated at 37° C. for 5 min. The cells are pelleted (300 g, 5 min), washed once with 1 mL Tyrode's Solution, pH 7.4, re-pelleted (300 g, 5 min), and resuspended in 1 mL Tyrode's Solution, pH 7.4.
Assay 4: MCT1-Mediated Lactate Transport in BT20 Breast Cancer Cells.
Preparation of BCECF loaded cells are as described for Assay 1. Lactate transport assay is as described for Assay 1, except 10 mM L-lactate (rather than 50 mM) is added.

The nature of data set [2]: Metabolic stability in human liver microsomes (in vitro t1/2). It is filed as in vitro ADME. As to conditions: human liver microsomes 0.5 mg/mL, 2 μM compound, % remaining at 60 min. As to the method: (§1) Metabolic Stability Assays The following are assays that may be used to evaluate the metabolic stability of compounds of Formula (I) in human, rat, or mouse microsomes. The assays follow a common procedure recited below. 1. […] Two separated experiments were performed as follows. a) With NADPH: 10 μL of 20 mg/mL liver microsomes and 40 μL of 10 mM NADPH were added to the incubations. […] The final concentration of microsomes was 0.5 mg/mL. 3. The reaction was started with the addition of 4 μL of 200 μM control compound or test compound solutions. Verapamil was used as positive control in this study. The final concentration of test compound or control compound was 2 μM. 4. Aliquots of 50 μL were taken from the reaction solution at 0, 15, 30, 45 and 60 min. […] Samples were centrifuged at 3,220 g for 40 minutes. A 90 μL aliquot of the supernatant was mixed with 90 μL of ultra-pure H2O and then used for LC-MS/MS analysis. 5. Data analysis. All calculations were carried out using Microsoft Excel. Peak areas were determined from extracted ion chromatograms. The slope value, k, was determined by linear regression of the natural logarithm of the remaining percentage of the parent drug vs. incubation time curve. The in vitro half-life (in vitro t1/2) was determined from the slope value: in vitro t1/2=−(0.693)/k.

Data set [3] in a line: Metabolic stability in mouse liver microsomes (in vitro t1/2). It is filed as in vitro ADME. The following applies: mouse liver microsomes 0.5 mg/mL, 2 μM compound; for Mouse microsome % 60 min: % remaining at 60 min. As to the method:
as §1
(Liver microsomes are vesicles of endoplasmic reticulum, rich in cytochrome P450 enzymes.)

Data set [4] can be described thus: Metabolic stability in rat liver microsomes (in vitro t1/2). It is filed as in vitro ADME. As to conditions: rat liver microsomes 0.5 mg/mL, 2 μM compound; for Rat microsome % 60 min: % remaining at 60 min. On the procedure: as §1
The nature of data set [5]: Pharmacokinetic assay in mouse (IV 3 mg/kg, PO 10 mg/kg). It is filed as in vivo. As to conditions: male, CD1, mouse, plasma, read-out: Mouse F (%). An excerpt:
(§2) Pharmacokinetic Assays in Mouse and Rat
(§3) The following are assays that may be used to evaluate the pharmacokinetic properties of Formula (I) in mouse or rat. The assays follow a common procedure recited below.
(§4) 1. […] For PO (oral gavage), DMSO/PEG400 (10:90). Formulations freshly prepared on the day of dosing or prior to dosing. Storage at room temperature.
(§5) 2. Test Species: For Mouse: Male CD1 strain, approximately 6-8 weeks in age, approximately 20-30 g. For Rat: Male Sprague-Dawley strain, approximately 6-8 weeks in age, approximately 200-300 g.
(§6) 3. Dose Level: For IV, 3 mg/kg. For PO, 10 mg/kg.
(§7) 4. Number of animals: 3 per assay.
(§8) 5. PK time points: For IV (plasma): 5 min, 15 min, 1, 2, 4, 6, 8, 24 h post dose. For PO (plasma): 15 min, 30 min, 1, 2, 4, 6, 8, 24 h post dose.
(§9) 6. Blood Sample Collection and Processing. Blood was collected (˜0.2 mL per time point) from jugular vein. Blood of each sample was transferred into plastic micro centrifuge tubes containing anticoagulant of EDTA-K2. Blood samples were centrifuged at 2,000 g for 5 minutes at 4° C. to obtain plasma.
(§10) 7. Samples Analysis: Plasma samples were analyzed using LC/MS/MS method, and pharmacokinetic parameters (half-life: t1/2; oral bioavailability: F; volume of distribution: Vss).

Data set [6] in a line: Pharmacokinetic assay in rat (IV 3 mg/kg, PO 10 mg/kg). The following applies: male, Sprague-Dawley, plasma, read-out: Rat F (%). Format: in vivo.
From the text: as §2, §3, §4, §5, §6, §7, §8, §9, §10

The subject of data set [7] is CFA-induced arthritis. The data set can be described thus: Adjuvant-induced arthritis model in rat: Difference of Weight Bearing test (DWB). Format: in vivo. As to conditions: SD rat, PO 3 days post CFA, compared to dexamethasone.
Data set [8] concerns CFA-induced arthritis. As to the kind of experiment: Adjuvant-induced arthritis model in rat: Mechanical Allodynia test (MA). The following applies: SD rat, PO 3 days post CFA, compared to dexamethasone. It is filed as in vivo.

A value given as a limit tells only on which side of the number the result lay.

MCT1, sequence (P53985 whole entry): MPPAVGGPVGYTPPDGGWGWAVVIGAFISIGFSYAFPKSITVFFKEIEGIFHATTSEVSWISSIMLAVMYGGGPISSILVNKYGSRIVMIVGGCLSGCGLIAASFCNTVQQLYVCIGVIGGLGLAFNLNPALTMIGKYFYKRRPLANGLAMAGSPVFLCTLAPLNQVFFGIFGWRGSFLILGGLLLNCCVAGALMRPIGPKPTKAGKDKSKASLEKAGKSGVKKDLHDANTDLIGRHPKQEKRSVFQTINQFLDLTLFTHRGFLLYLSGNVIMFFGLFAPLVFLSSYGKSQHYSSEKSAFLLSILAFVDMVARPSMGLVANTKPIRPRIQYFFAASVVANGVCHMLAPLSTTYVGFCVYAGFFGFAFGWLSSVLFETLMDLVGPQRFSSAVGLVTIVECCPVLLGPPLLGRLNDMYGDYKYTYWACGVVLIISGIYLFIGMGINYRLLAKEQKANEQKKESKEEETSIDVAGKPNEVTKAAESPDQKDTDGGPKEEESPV
MCT1, sequence (P35613 140-385 partner): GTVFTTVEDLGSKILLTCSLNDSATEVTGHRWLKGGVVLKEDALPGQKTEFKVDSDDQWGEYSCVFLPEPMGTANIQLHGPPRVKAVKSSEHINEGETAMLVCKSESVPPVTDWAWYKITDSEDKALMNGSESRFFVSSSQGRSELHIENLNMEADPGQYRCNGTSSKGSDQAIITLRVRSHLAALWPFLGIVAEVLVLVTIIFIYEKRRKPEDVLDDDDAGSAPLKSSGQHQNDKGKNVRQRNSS

With `CC(C)(OCc1cc(-c2ccsc2)n(Cc2ccccc2Cl)n1)C(=O)O` [Example 24, 2-([1-[(2-Chlorophenyl)methyl]-5-(thien-3-yl)1H-pyrazol-3-yl]methoxy)-2-methylpropanoic acid], the IC50 (in general, the concentration that inhibits the measured activity by half) in data set [1] was above 100000 nM.
Still for that read-out and setting: then `CC(C)(OCc1cc(-c2cccc(OC(F)(F)F)c2)n(Cc2ccccc2Cl)n1)C(=O)O` [Example 34, 2-([1-[(2-Chlorophenyl)methyl]-5-[3-(trifluoromethoxy)phenyl]1H-pyrazol-3-yl]methoxy)-2-methylpropanoic acid], with above 11000 nM; and `CC(C)(OCc1cc(-c2cccc(CN3CCOCC3)c2)n(Cc2ccccc2Cl)n1)C(=O)O` [Example 40, 2-([1-[(2-Chlorophenyl)methyl]-5-[3-(morpholinomethyl)phenyl]1H-pyrazol-3-yl]methoxy)-2-methylpropanoic acid], with above 100000 nM; and `CC(C)(OCc1cc(-c2cccc(OCC(F)(F)F)c2)n(Cc2ccccc2Cl)n1)C(=O)O` [Example 43, 2-([1-[(2-Chlorophenyl)methyl]-5-[3-(2,2,2-trifluoroethoxy)phenyl]1H-pyrazol-3-yl]methoxy)-2-methylpropanoic acid], with above 33000 nM.
The same measure, in the same setting: then `CC(C)(OCc1cc(-c2cscn2)n(Cc2ccccc2Cl)n1)C(=O)O` [Example 47, 2-([1-[(2-Chlorophenyl)methyl]-5-(1,3-thiazol-4-yl)-1H-pyrazol-3-yl]methoxy)-2-methylpropionic acid], with above 100000 nM; and `COc1cccc(-c2cc(COC(C)(C)C(=O)O)nn2Cc2ccccc2)c1` [Example 53, 2-([1-benzyl-5-(3-methoxyphenyl)-1H-pyrazol-3-yl]methoxy)-2-methyl-propanoic acid], with above 100000 nM.
For `COc1cccc(-c2cc(COC(C)(C)C(=O)O)nn2-c2ccccc2Cl)c1` [Example 57, 2-([1-(2-chlorophenyl)-5-(3-methoxyphenyl)-1H-pyrazol-3-yl]methoxy)-2-methylpropanoic acid], the half-inhibitory concentration (IC50) in data set [1] is above 133000 nM. Further, the “Human microsome % 60 min” value in data set [2] turned out to be 80%. In data set [3], the “Mouse microsome % 60 min” value was 100%.
In data set [1], `CC(C)C(=O)Nc1cccc(-c2cc(COC(C)(C)C(=O)O)nn2Cc2ccccc2Cl)c1` [Example 69, 2-([1-[(2-Chlorophenyl)methyl]-5-[3-(2-methylpropanamido)phenyl]-1H-pyrazol-3-yl]methoxy)-2-methylpropanoic acid] came in with an IC50 above 100000 nM.
The same measure, in the same setting: with `CC(C)(OCc1cc(-c2cccc(S(C)(=O)=O)c2)n(Cc2ccccc2Cl)n1)C(=O)O` [Example 70, 2-([1-[(2-Chlorophenyl)methyl]-5-(3-methanesulfonylphenyl)-1H-pyrazol-3-yl]methoxy)-2-methylpropanoic acid] the figure was above 100000 nM.
For `CC(C)CNc1cccc(-c2cc(COC(C)(C)C(=O)O)nn2Cc2ccccc2Cl)c1` [Example 73, 2-([1-[(2-chlorophenyl)methyl]-5-[3-[(2-methylpropyl)amino]phenyl]-1H-pyrazol-3-yl]methoxy)-2-methyl-propanoic acid], the IC50 in data set [1] was above 11000 nM.
The compound `CC(C)NC(=O)c1cccc(-c2cc(COC(C)(C)C(=O)O)nn2Cc2ccccc2Cl)c1` [Example 74, 2-([1-[(2-Chlorophenyl)methyl]-5-[3-[(propan-2-yl)carbamoyl]phenyl]-1H-pyrazol-3-yl]methoxy)-2-methyl-propanoic acid] had a half-maximal inhibitory concentration (IC50) in data set [1] above 100000 nM.
Turning to `CC(C)(OCc1cc(Nc2ccccc2)n(Cc2ccccc2Cl)n1)C(=O)O` [Example 75, 2-([1-[(2-chlorophenyl)methyl]-5-(phenylamino)-1H-pyrazol-3-yl]methoxy)-2-methylpropanoic Acid], in data set [1], the IC50 is above 100000 nM.
In the case of `Cn1ncc2cccc(-n3nc(COC(C)(C)C(=O)O)cc3-c3cccc(OCC(C)(C)C)c3)c21` [Example 167, 2-([5-[3-(2,2-dimethylpropoxy)phenyl]-1-(1-methyl-1H-indazol-7-yl)-1H-pyrazol-3-yl]methoxy)-2-methyl-propanoic acid], the “Human microsome % 60 min” value in data set [2] stood at 84%. Moreover, the “Rat microsome % 60 min” value in data set [4] stood at 72%. Further, in data set [3], the “Mouse microsome % 60 min” value was found to be 97%. Besides, the bioavailability amounted to 24% in data set [5] and 72% in data set [6].
Consider `CCOc1ccccc1Cn1nc(COC(C)(C)C(=O)O)cc1-c1cc(OC)cc(OC)c1` [Example 211, 2-([5-(3,5-Dimethoxyphenyl)-1-[(2-ethoxyphenyl)methyl]-1H-pyrazol-3-yl]-methoxy)-2-methylpropanoic acid], for which the “Human microsome % 60 min” value in data set [2] was determined as 78%. In addition, in data set [4], the “Rat microsome % 60 min” value is reported as 57%. The “Mouse microsome % 60 min” value in data set [3] is listed as 43%. Further, the bioavailability is 57% in data set [5] and 55% in data set [6].
As to `COc1cc(OC)cc(-c2cc(COC(C)(C)C(=O)O)nn2Cc2ccccc2Cl)c1` [Example 224, 2-([1-[(2-Chlorophenyl)methyl]-5-(3,5-dimethoxyphenyl)-1H-pyrazol-3-yl]-methoxy)-2-methylpropanoic acid], the “Human microsome % 60 min” value in data set [2] came to 91%. Further, the “Rat microsome % 60 min” value in data set [4] is on record as 73%. Also, the “Mouse microsome % 60 min” value in data set [3] was found to be 98%. Also, the bioavailability in data set [6] came to 53%. The “Difference in Weight Bearing, Minimal Efficacious Dose” value in data set [7] is at most 10 mg/kg. In addition, in data set [8], the “Mechanical Allodynia (Von Frey), Minimal Efficacious Dose” value is at most 10 mg/kg.
Turning to `CCn1ncc2ccc(-c3cc(COC(C)(C)C(=O)O)nn3-c3ccccc3N3CCC3)cc21` [Example 228, 2-([1-[2-(Azetidin-1-yl)phenyl]-5-(1-ethyl-1H-indazol-6-yl)-1H-pyrazol-3-yl]methoxy)-2-methylpropanoic acid], the “Human microsome % 60 min” value in data set [2] is 71%. In addition, the “Rat microsome % 60 min” value in data set [4] worked out at 91%. In data set [3], the “Mouse microsome % 60 min” value was found to be 96%. For the same compound, the bioavailability in data set [5] was 100%; in data set [6], 94%.
As to `CCn1ncc2ccc(-c3cc(CO[C@@](C)(CC)C(=O)O)nn3Cc3ccccc3Cl)cc21` [Example 257, (S)-2-((1-(2-chlorobenzyl)-5-(1-ethyl-1H-indazol-6-yl)-1H-pyrazol-3-yl)methoxy)-2-methylbutanoic acid], the “Human microsome % 60 min” value in data set [2] is 96%. Further, the “Rat microsome t1/2, min” value in data set [4] (in vitro t1/2) is “∞”. Also, in data set [3] (in vitro t1/2), the “Mouse microsome t1/2, min” value is listed as “∞”. The bioavailability in data set [5] and in data set [6] was 76% throughout.
Consider `CC(C)(OCc1cc(-c2cccc(OC3CCC3)c2)n(-c2ccccc2N2CCC2)n1)C(=O)O` [Example 260, 2-([1-[2-(Azetidin-1-yl)phenyl]-5-(3-cyclobutoxyphenyl)-1H-pyrazol-3-yl]methoxy)-2-methylpropanoic acid], for which the bioavailability is 86% in data set [5] and 85% in data set [6]. Further, the “Difference in Weight Bearing, Minimal Efficacious Dose” value in data set [7] came to 1 mg/kg. Moreover, the “Mechanical Allodynia (Von Frey), Minimal Efficacious Dose” value in data set [8] is 1 mg/kg.
With `CCn1ncc2ccc(-c3cc(CO[C@](C)(CC)C(=O)O)nn3-c3ccccc3N3CCC3)cc21` [Example 269, (2R)-2-([1-[2-(Azetidin-1-yl)phenyl]-5-(1-ethyl-1H-indazol-6-yl)-1H-pyrazol-3-yl]methoxy)-2-methylbutanoic acid], the bioavailability in data set [5] was 100%.
